# Measurements reported in US20260167662A1, “MODIFIED […] GUANIDINO STRUCTURE IN BRIDGED PART AND METHOD FOR PRODUCING OLIGO[…] SAME” (LUXNA BIOTECH CO., LTD., priority 2022, published 2026).
# Experiment: Stability test of amidite: 0.1 M solution in acetonitrile stored in the dark at room temperature, analysed by UHPLC
# Type: physicochemical
# Conditions: 0.1 M in acetonitrile
# Method: • Device used: ACQUITY Arc UHPLC system manufactured by Waters Corporation • Column: Xbridge BEH C18, 2.5 μm, 3.0×100 mm, Column XP manufactured by Waters Corporation • Mobile phase: Gradient
# • Flow rate: 0.85 mL/min • Detection: PDA (200 to 400 nm) • Column temperature: 30° C. • Analysis time: 10.00 min
# The amidite a3 (purity was 96.3%) obtained in Example 1, and an amidite a3′ (purity was 90.9%) synthesized according to the method described in Patent Document 5 were each dissolved in acetonitrile to prepare a 0.1 M solution.
# Of the two 0.1 M solutions obtained, the solution containing the amidite a3 of Example 1 was stored in the dark at room temperature for 7 days. On the other hand, the solution containing the amidite a3′ of Patent Document 5 was stored in the dark at room temperature for 17 hours.
# The UHPLC results of the amidites a3 and a3′ contained respectively in the stored solutions are shown in Tables 7 and 8, and the UHPLC-MS results of the amidites a3 and a3′ contained respectively in the stored solutions are shown in FIGS. 12 and 13.
structure (smiles),measurement,setting,value
"COc1ccc(C(OC[C@]23CN(/C(=N/C(=O)OCC4c5cc(C(C)(C)C)ccc5-c5ccc(C(C)(C)C)cc54)NC(C)(C)C)C(C2OP(OCCC#N)N(C(C)C)C(C)C)[C@H](n2cc(C)c(=O)[nH]c2=O)O3)(c2ccccc2)c2ccc(OC)cc2)cc1 (stereo partly drawn) [amidite a3, di-tBu-Fmoc-GuNA[t-Bu]-T amidite]",% Area of main UHPLC peak after storage,"stored for 7 days, retention time 7.335 min, purity before storage 96.3%",95.21%
same,"Stability in stored solution, compared by UHPLC peaks",a3 stored 7 days versus a3′ stored 17 hours,more stable
"COc1ccc(C(OC[C@@]23CN(/C(=N/C(=O)OCC4c5ccccc5-c5ccccc54)NC(C)(C)C)C([C@H](n4cc(C)c(=O)[nH]c4=O)O2)[C@H]3OP(OCCC#N)N(C(C)C)C(C)C)(c2ccccc2)c2ccc(OC)cc2)cc1 (stereo partly drawn) [amidite a3′, reference compound]",% Area of main UHPLC peak after storage,"stored for 17 hours, retention time 5.866 min, purity before storage 90.9%",76.00%
